pIC50: −log10 of the molar value. Like-named read-outs stand apart in the source and are kept apart here.

We go through 11 compounds from US12139492B2 (Endotarget Inc., priority 2021, dated 2024).

One assay deals with JeKo-1 cells. The assay can be described thus: Antiproliferative effect, MTS cell viability assay, JeKo-1 cells. Format: cell-based. Particulars: Homo sapiens; JeKo-1 mantle cell lymphoma cells; read-out: IC50 (anti-proliferation) JeKO-1 cells. A digest of the protocol: (§1)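 Mino and JeKo-1 mantle B-cell lymphoma lines were exposed to compound at 0, 0.001, 0.01, 0.1, 1 and 10 μM for 72 h. Viability was read by MTS reduction to formazan, measured as absorbance at 490 nm.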
Background: Tetrazolium dyes change colour on reduction, which living cells bring about.

The test system of a further assay is Mino cells. The experiment in a line: Antiproliferative effect, MTS cell viability assay, Mino cells. Format: cell-based. Conditions: Homo sapiens, Mino mantle cell lymphoma cells, read-out: IC50 (anti-proliferation) Mino cells. In outline:
as §1

Another assay concerns the target BTK (Homo sapiens, UniProt Q06187). The assay can be described thus: Degradation of BTK protein in Namalwa cells (Western blot; DC50, Dmax). Conditions: for DC50: cell line not given.
Setting [1] is: read-out: DC50 (BTK degradation), concentration giving 50% reduction of BTK expression level.
Where [2] appears, read: read-out: Dmax (BTK degradation).

Sequence of BTK (Q06187 whole entry): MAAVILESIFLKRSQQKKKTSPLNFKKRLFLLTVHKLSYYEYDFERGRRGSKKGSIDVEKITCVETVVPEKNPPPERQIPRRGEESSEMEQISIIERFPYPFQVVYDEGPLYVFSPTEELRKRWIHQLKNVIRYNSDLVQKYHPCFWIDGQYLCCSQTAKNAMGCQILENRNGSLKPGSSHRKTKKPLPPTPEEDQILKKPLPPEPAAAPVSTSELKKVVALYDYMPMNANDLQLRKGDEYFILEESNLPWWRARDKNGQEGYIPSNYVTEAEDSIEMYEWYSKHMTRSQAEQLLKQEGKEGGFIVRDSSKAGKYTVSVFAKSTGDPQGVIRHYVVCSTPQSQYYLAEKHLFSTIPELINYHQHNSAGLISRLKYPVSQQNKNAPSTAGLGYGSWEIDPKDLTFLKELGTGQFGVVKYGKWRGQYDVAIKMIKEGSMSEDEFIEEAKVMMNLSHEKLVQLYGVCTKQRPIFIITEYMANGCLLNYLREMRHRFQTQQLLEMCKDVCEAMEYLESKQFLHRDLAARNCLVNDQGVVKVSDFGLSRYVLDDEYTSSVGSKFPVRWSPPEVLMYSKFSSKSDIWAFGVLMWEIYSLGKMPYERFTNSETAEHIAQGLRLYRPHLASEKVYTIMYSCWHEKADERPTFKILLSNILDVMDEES

By DC50 is commonly meant the midpoint of the concentration-degradation curve. By Dmax is commonly meant the greatest extent of degradation seen. Consider `Nc1ncnc2c1c(-c1ccc(Oc3ccccc3)cc1)nn2[C@@H]1CCCN(C2CN(C(=O)N3CC(N4CCN(c5ccc6c(c5)CN(C5CCC(=O)NC5=O)C6=O)CC4)C3)C2)C1` (stereo partly drawn) [Compound 480, 3-(5-(4-(1-(3-((R)-3-(4-amino-3-(4-phenoxyphenyl)-1H-pyrazolo[3,4-d]pyrimidin-1-yl)piperidin-1-yl)azetidine-1-carbonyl)azetidin-3-yl)piperazin-1-yl)-1-oxoisoindolin-2-yl)piperidine-2,6-dione], for which the values for the pIC50 in the assay with JeKo-1 cells and with Mino cells (MINO) were 5.00 to 6.00 and above 6.00, respectively. Moreover, the “degradation of BTK protein” value at BTK (Namalwa B lymphocyte cells, various concentrations, 24 hours, Western blot) is “dose-dependent degradation”. For the same compound, at BTK (setting [1]), the DC50 is below 0.01 µM. Further, the Dmax on BTK (setting [2]) was above 90%.
For `NC1=NC=NC2C1C(c1ccc(Oc3ccccc3)cc1)=NN2C1CCN(C2CN(C(=O)N3CC(C4CN(c5ccc6c(c5)CN(C5CCC(=O)NC5=O)C6=O)C4)C3)C2)CC1` (stereo not drawn) [Compound 500, 3-(5-(1′-(3-(4-(4-amino-3-(4-phenoxyphenyl)-3a,7a-dihydro-1H-pyrazolo[3,4-d]pyrimidin-1-yl)piperidin-1-yl)azetidine-1-carbonyl)-[3,3′-biazetidin]-1-yl)-1-oxoisoindolin-2-yl)piperidine-2,6-dione], the results for the pIC50 in the assay on JeKo-1 cells and in the assay with Mino cells (MINO) were 5.00 to 6.00 and above 6.00, respectively. The DC50 on BTK (setting [1]) is 0.01 to 0.05 µM. Also, the Dmax at BTK (setting [2]) is above 90%.
For `NC(=O)c1c(-c2ccc(Oc3ccccc3)cc2)nn2c1NCCC2C1CCN(C2CCN(C(=O)N3CCC(CN4CCC(c5ccc6c(c5)C(=O)N(C5CCC(=O)NC5=O)C6=O)CC4)CC3)CC2)CC1` (stereo not drawn) [Compound 355, 7-(1′-(4-((4-(2-(2,6-dioxopiperidin-3-yl)-1,3-dioxoisoindolin-5-yl)piperidin-1-yl)methyl)piperidine-1-carbonyl)-[1,4′-bipiperidin]-4-yl)-2-(4-phenoxyphenyl)-4,5,6,7-tetrahydropyrazolo[1,5-a]pyrimidine-3-carboxamide], the pIC50 with JeKo-1 cells and in the assay with Mino cells (MINO) was 5.00 to 6.00 each time. For the same compound, the Dmax on BTK was above 90%. The DC50 on BTK (BTK degradation) is below 0.01 µM.
For the compound `Nc1ncnc2c1c(-c1ccc(Oc3ccccc3)cc1)nn2C1CCN(C2CCN(CC3CCN(c4ccc(N5CCC(=O)NC5=O)cc4)CC3)CC2)CC1` [Compound 568, 1-(4-(4-((4-(4-amino-3-(4-phenoxyphenyl)-1H-pyrazolo[3,4-d]pyrimidin-1-yl)-[1,4′-bipiperidin]-1′-yl)methyl)piperidin-1-yl)phenyl)dihydropyrimidine-2,4(1H,3H)-dione], the pIC50 with JeKo-1 cells and with Mino cells (MINO) was 5.00 to 6.00 throughout. Also, on BTK (setting [1]), the DC50 is above 0.05 µM. Further, the Dmax at BTK (setting [2]) was above 75%.
With `NC(=O)c1c(-c2ccc(Oc3ccccc3)cc2)nn2c1NCC[C@H]2C1CCN(CC2CCN(C(=O)N3CCC(N4CCC(c5ccc6c(c5)CN(C5CCC(=O)NC5=O)C6=O)CC4)CC3)CC2)CC1` (stereo partly drawn) [Compound 408, (7S)-7-(1-((1-(4-(2-(2,6-dioxopiperidin-3-yl)-1-oxoisoindolin-5-yl)-[1,4′-bipiperidine]-1′-carbonyl)piperidin-4-yl)methyl)piperidin-4-yl)-2-(4-phenoxyphenyl)-4,5,6,7-tetrahydropyrazolo[1,5-a]pyrimidine-3-carboxamide], the pIC50 in the assay on JeKo-1 cells is 5.00 to 6.00; in the assay with Mino cells (MINO), below 5.00. On BTK (setting [1]), the DC50 was 0.01 to 0.05 µM. Also, the Dmax on BTK (setting [2]) was above 75%.
On the same counts, the results for `NC(=O)c1c(-c2ccc(Oc3ccccc3)cc2)nn2c1NCC[C@H]2C1CCN(CC2CCN(C(=O)N3CCN(CC4CCN(c5ccc6c(c5)CN(C5CCC(=O)NC5=O)C6=O)CC4)CC3)CC2)CC1` (stereo partly drawn) [Compound 412, (7S)-7-(1-((1-(4-((1-(2-(2,6-dioxopiperidin-3-yl)-1-oxoisoindolin-5-yl)piperidin-4-yl)methyl)piperazine-1-carbonyl)piperidin-4-yl)methyl)piperidin-4-yl)-2-(4-phenoxyphenyl)-4,5,6,7-tetrahydropyrazolo[1,5-a]pyrimidine-3-carboxamide] are above 6.00, 5.00 to 6.00, 0.01 to 0.05 µM and above 90%.
In the case of `Nc1ncnc2c1c(-c1ccc(Oc3ccccc3)cc1)nn2C1CCN(CCN2CCC(N3CCN(c4ccc5c(c4)C(=O)N(C4CCC(=O)NC4=O)C5=O)CC3)CC2)CC1` (stereo not drawn) [Compound 457, 5-(4-(1-(2-(4-(4-amino-3-(4-phenoxyphenyl)-1H-pyrazolo(3,4-d)pyrimidin-1-vi)piperidin-1-yl)ethyl)piperidin-4-yl)piperazin-1-yl)-2-(2,6-dioxopiperidin-3-yl)isoindoline-1,3-dione], the pIC50 with JeKo-1 cells and in the assay with Mino cells was above 6.00 each time. Also, the DC50 on BTK (setting [1]) was below 0.01 µM. Further, the Dmax on BTK (setting [2]) is above 90%.
With `Nc1ncnc2c1c(-c1ccc(Oc3ccccc3)cc1)nn2C1CCN(C2CCN(C(=O)N3CCN(C4CCN(c5ccc6c(c5)CN(C5CCC(=O)NC5=O)C6=O)CC4)CC3)CC2)CC1` (stereo not drawn) [Compound 234, 3-(5-(4-(4-(4-(4-amino-3-(4-phenoxyphenyl)-1H-pyrazolo[3,4-d]pyrimidin-1-yl)-[1,4′-bipiperidine]-1′-carbonyl)piperazin-1-yl)piperidin-1-yl)-1-oxoisoindolin-2-yl)piperidine-2,6-dione], the pIC50 with JeKo-1 cells and in the assay with Mino cells (MINO) was 5.00 to 6.00 each time. The same compound showed a Dmax at BTK above 75%. The same compound displayed a DC50 at BTK (BTK degradation) of 0.01 to 0.05 µM.
Regarding `NC(=O)c1c(-c2ccc(Oc3ccccc3)cc2)nn2c1NCCC2C1CCN(C(=O)N2CCN(CCN3CCN(c4ccc5c(c4)C(=O)N(C4CCC(=O)NC4=O)C5=O)CC3)CC2)CC1` (stereo not drawn) [Compound 281, 7-(1-(4-(2-(4-(2-(2,6-dioxopiperidin-3-yl)-1,3-dioxoisoindolin-5-yl)piperazin-1-yl)ethyl)piperazine-1-carbonyl)piperidin-4-yl)-2-(4-phenoxyphenyl)-4,5,6,7-tetrahydropyrazolo[1,5-a]pyrimidine-3-carboxamide], the pIC50 in the assay with JeKo-1 cells and in the assay with Mino cells (MINO) was 5.00 to 6.00 throughout. The compound further came in with a Dmax on BTK above 90%. Besides, the DC50 at BTK (BTK degradation) was in the range of 0.01 to 0.05 µM.
Take `NC(=O)c1c(-c2ccc(Oc3ccccc3)cc2)nn2c1NCCC2C1CCN(C(=O)N2CCN(CCN3CCC(c4ccc5c(c4)C(=O)N(C4CCC(=O)NC4=O)C5=O)CC3)CC2)CC1` (stereo not drawn) [Compound 287]: the figures for the pIC50 with JeKo-1 cells and with Mino cells (MINO) were below 5.00 and 5.00 to 6.00, respectively. For the same compound, the Dmax on BTK was above 75%. Besides, at BTK (BTK degradation), the DC50 was in the range of 0.01 to 0.05 µM.
Regarding `NC(=O)c1c(-c2ccc(Oc3ccccc3)cc2)nn2c1NCC[C@H]2C1CCN(CC2CCN(CCC3CCN(c4ccc5c(c4)C(=O)N(C4CCC(=O)NC4=O)C5=O)CC3)CC2)CC1` (stereo partly drawn) [Compound 333, (7S)-7-(1-((1-(2-(1-(2-(2,6-dioxopiperidin-3-yl)-1,3-dioxoisoindolin-5-yl)piperidin-4-yl)ethyl)piperidin-4-yl)methyl)piperidin-4-yl)-2-(4-phenoxyphenyl)-4,5,6,7-tetrahydropyrazolo[1,5-a]pyrimidine-3-carboxamide], the pIC50 in the assay with JeKo-1 cells is below 5.00; in the assay with Mino cells (MINO) it was 5.00 to 6.00. Besides, the greatest degradation seen (Dmax) on BTK is above 75%. The same compound returned a DC50 on BTK (BTK degradation) of 0.01 to 0.05 µM.
